Read-outs that look alike come from different tables or passages of the source.
Columns and labels:
BTK [1] = molecular target: BTK (Homo sapiens, UniProt Q06187); experiment: BTK remaining in TMD8 WT mouse xenograft study; assay type: in vivo; design: from tissue; host or cells: TMD8 xenograft in CB.17 SCID mice; settings: QD
Text: Efficacy in Mouse Xenograft Models
(§1) This example examines the activity of various BTK CTMs in relevant disease models, including the WT and C481S TMD8 model, which models B cell malignancies with/without inhibitor-driven BTK mutations at C481.

TMD8 C481S cells = experiment: Cell viability assay (CellTiter-Glo), TMD8 C481S cells; settings: for EC50: Homo sapiens, TMD8, 72 h; for EMAX (% viable cells): TMD8 C481S cells, treatment time 72 h
TMD8 tumor cells = experiment: TMD8 xenograft efficacy study (wild-type BTK); assay type: in vivo, mouse; settings: TMD8 WT, QD
Experimental: […] Tumor growth inhibition (% TGI) were calculated on the final day of measurement using the equation [1−(T−T0/C−T0)]×100, where T and C represent the mean size of tumors in the treated (T) and control (C) groups, and T0 refers to the tumor size at randomization.
as §1

primary human T cells [2] = experiment: T cell activation assay, IL-2 secretion (ELISA); assay type: cell-based
Outline: (§2)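 Primary human T cells stimulated via TCR with anti-CD3/anti-CD28 in the presence of test compound. IL-2 secretion measured by ELISA; surface CD25 and CD69 by flow cytometry. Values are fold-change versus anti-CD3/anti-CD28 stimulation without compound.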

primary human T cells [3] = experiment: T cell activation assay, CD25 and CD69 staining (flow cytometry); assay type: cell-based; settings: fold-change of response relative to baseline
Outline: as §2

TMD8 cells = experiment: Cell viability assay (CellTiter-Glo), TMD8 cells; settings: for EC50: Homo sapiens, TMD8, 72 h; for EMAX (% viable cells): TMD8 cells, treatment time 72 h
BTK C481S = BTK C481S (Homo sapiens, UniProt Q06187, C481S); experiment: BTK degradation (Total BTK HTRF) in TMD8 cells expressing BTK-C481S; assay type: cell-based; design: endogenous in cells; host or cells: TMD8 BTK-C481S (clone2C3), Cas9 RNP knock-in; settings: TMD8 BTK-C481S (clone2C3) cells, treatment time 4 h
Experimental: BTK levels were determined using Cisbio Total-BTK HTRF (Homologous Time-Resolved Fluorescence) kit (63ADK064PEG) according to the manufacturer's protocol. Briefly, cells were incubated in 1× supplied lysis buffer for 30 minutes. In an opaque white low volume 96-well plate (Cisbio, 66PL96005), cell lysate was combined with two different specific BTK antibodies, one conjugated with Eu^3+-Cryptate FRET donor and one conjugated with d2 FRET acceptor. Assay controls include wells containing cell lysate with only the Eu^3+-Cryptate FRET donor antibody and wells containing both HTRF antibodies and lysis buffer without cells or control lysate provided by Cisbio. HTRF ratio was calculated as (acceptor signal at 665 nm/donor signal at 620 nm)×10^4. Background HTRF levels were determined from the control well containing the donor, but no acceptor, antibody. Background HTRF levels were subtracted from all samples. Readouts were reported as HTRF levels relative to HTRF levels of DMSO-treated cells. Four-parameter non-linear regressions were performed in GraphPad Prism 7.02 to obtain DC50 values.
BTK Degradation (Total BTK HTRF) at Four Hours in TMD8 Cells Expressing BTK-C481S
This example evaluates the potency of CTM in degrading […]. The BTK binding moieties utilized in CTMs bind to the BTK active site. This example evaluates whether the active site mutation C481S affects CTM-induced degradation of BTK.

[4] = PK data for BTK CTMs (in vivo plasma concentrations); settings: for Vd: read-out: Volume of Distribution
Text: The present example evaluates in vivo plasma concentrations of BTK CTMs to develop PK-PD-efficacy relationship and predict human exposure.

BTK [5] = molecular target: T1, BTK (Mus musculus, UniProt P35991); experiment: In vivo degradation of BTK in mouse PD experiments with oral dosing; settings: oral dose 3 mg/kg, blood, flow cytometry
T1 construct: from tissue; host or cells: mouse blood B cells / splenocytes (CD-1 or BALB/c)
Outline: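 CD-1 or BALB/c mice dosed by oral gavage, screens at 90 mg/kg for 6 h, later at lower doses/longer times. Blood or splenocyte BTK measured by intracellular flow cytometry (or HTRF); % degradation from B-cell minus T-cell BTK geometric MFI, relative to vehicle.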

[6] = IP, 10 mg/kg, 14 days of dosing
[7] = IP, 30 mg/kg, 14 days of dosing
[8] = IP, 30 mg/kg, 21 days of dosing
[9] = 1.4 nM, fold-change of response relative to baseline
[10] = 37 nM, fold-change of response relative to baseline
[11] = 333 nM, fold-change of response relative to baseline (stimulation without compound)
[12] = PO, 30 mg/kg, 21 days of dosing
[13] = Rat Sprague-Dawley, 10 mg/kg PO

SMILES | EC50 (TMD8 C481S cells) [nM] | EMAX (% viable cells) (TMD8 C481S cells) [%] | IL-2 Secretion Anti-CD3/Anti-CD28 Stimulation (primary human T cells [2]; [9]) | IL-2 Secretion Anti-CD3/Anti-CD28 Stimulation (primary human T cells [2]; [10]) | IL-2 Secretion Anti-CD3/Anti-CD28 Stimulation (primary human T cells [2]; [11]) | CD25 Staining Anti-CD3/Anti-CD28 Stimulation (primary human T cells [3]; 1.4 nM) | CD69 Staining Anti-CD3/Anti-CD28 Stimulation (primary human T cells [3]; 1.4 nM) | CD25 Staining Anti-CD3/Anti-CD28 Stimulation (primary human T cells [3]; 37 nM) | CD69 Staining Anti-CD3/Anti-CD28 Stimulation (primary human T cells [3]; 37 nM) | CD25 Staining Anti-CD3/Anti-CD28 Stimulation (primary human T cells [3]; 333 nM) | CD69 Staining Anti-CD3/Anti-CD28 Stimulation (primary human T cells [3]; 333 nM) | EC50 (TMD8 cells) [nM] | EMAX (% viable cells) (TMD8 cells) [%] | also measured
CN1CCN([C@@H]2CCCN(c3cnc(C(N)=O)c(Nc4ccc(N5CCN(CCCCc6cccc7c6CN(C6CCC(=O)NC6=O)C7=O)CC5)cc4)n3)C2)C1=O (some centres unmarked) [Compound 17] | 3.71 | 15 | 1.59 | 3.14 | 2.92 | 1.06 | 1.05 | 1.34 | 1.23 | 1.11 | 1.12 | 0.6 | 7 | BTK Remaining (% relative to vehicle) (BTK [1]; [6]): 20%; BTK Remaining (% relative to vehicle) (BTK [1]; [7]): 15%; BTK Remaining (% relative to vehicle) (BTK [1]; [8]): 7%; Tumor Growth Inhibition (relative to vehicle) (TMD8 tumor cells; [6]): 14%; Tumor Growth Inhibition (relative to vehicle) (TMD8 tumor cells; [7]): 66%; Tumor Growth Inhibition (relative to vehicle) (TMD8 tumor cells; [8]): 81%
CN1CCN([C@@H]2CCCN(c3cnc(C(N)=O)c(Nc4ccc(C5CCN(C6CN(c7ccc8c(c7)C(=O)N(C7CCC(=O)NC7=O)C8=O)C6)CC5)cc4)n3)C2)C1=O (some centres unmarked) [Compound 53] | 16.1 | 24 | 1.22 | 2.08 | 2.53 | 1.09 | 1.06 | 1.14 | 1.07 | 0.84 | 0.83 | 2.24 | 16 | BTK Remaining (% relative to vehicle) (BTK [1]; [12]): 19%; Tumor Growth Inhibition (relative to vehicle) (TMD8 tumor cells; [12]): 27%; DC50 (BTK C481S): 8 nM; AUC ([4]; Mouse Balb/c, 1 mg/kg IV): 2.75 µM·h; clearance ([4]; Mouse Balb/c, 1 mg/kg IV): 7.5 mL/min/kg; Vd ([4]; Mouse Balb/c, 1 mg/kg IV): 0.88 L/kg; AUC ([4]; Mouse Balb/c, 30 mg/kg PO): 96 µM·h; bioavailability ([4]; Mouse Balb/c, 30 mg/kg PO): 113%; AUC ([4]; Rat Sprague-Dawley, 1 mg/kg IV): 0.31 µM·h; clearance ([4]; Rat Sprague-Dawley, 1 mg/kg IV): 75 mL/min/kg; Vd ([4]; Rat Sprague-Dawley, 1 mg/kg IV): 5.9 L/kg; AUC [4, 13]: 2.3 µM·h; bioavailability [4, 13]: 97%; % BTK Remaining (BTK [5]; 6 h): 35%; % BTK Remaining (BTK [5]; 24 h): 56%
